Data: ChEMBL document CHEMBL5375988, “AcGlcAs: A Novel P53-Targeting Arsenical with Potent Cellular Uptake and Cancer Cell Selectivity” (J Med Chem, 2023)
The source made the active and inactive calls. No cut-off for these calls is given here.

Tests used:
[1] = Clearance in ICR mouse at 10 mg/kg, iv measured upto 24 hrs by ICP-MS analysis relative to hepatic blood flow; format: ADME, organism-based; details: in vivo
U-937 [2] = test: Upregulation of PUMA mRNA expression in human U-937 cells overexpressing p53-V272M mutant pretreated for 1 hr followed by culturing in fresh medium for 4 hrs by RT-qPCR analysis; format: functional, cell-based
NB-4 [3] = test: Induction of granulocytic differentiation in human NB4 cells assessed as increase in CD11b expression at 9 uM incubated for 1 hrs followed by replacement with fresh culture medium for 48 hrs by flow cytometry analysis (reference value: 1.44%); format: functional
NB-4 [4] = test: Induction of apoptosis in human NB4 cells assessed as early apoptotic cells at 27 uM preincubated for 1 hrs followed by replacement with fresh culture medium and measured after 24 hrs by Annexin V-FITC/7AAD staining based flow cytometry assay (reference value: 2.15%); format: functional
[5] = Drug uptake in human MDA-MB-231 cells assessed as fold increase in arsenic accumulation at 10 uM incubated for 10 mins by ICP-MS analysis; format: ADME, cell-based; details: mda-mb-231, 10 min
NCI-H1299 [6] = test: Upregulation of MDM2 mRNA expression in human NCI-H1299 cells overexpressing p53-V272M mutant at 2 uM pretreated for 1 hr followed by culturing in fresh medium for 8 hrs by RT-qPCR analysis; format: functional, cell-based
[7] = target: T1, PML-RARalpha (Homo sapiens) (UniProt P10276+P29590); test: Induction of PML/RARalpha (unknown origin) degradation overexpressed in HEK293T cells assessed as residual protein level at 2 to 6 uM incubated for 1 hrs followed by replacement with fresh culture medium and measured after 16 hrs by Western blot analysis; format: cell-based; details: dose 2-6 µM
T1 sequence (P10276 whole entry, looked up): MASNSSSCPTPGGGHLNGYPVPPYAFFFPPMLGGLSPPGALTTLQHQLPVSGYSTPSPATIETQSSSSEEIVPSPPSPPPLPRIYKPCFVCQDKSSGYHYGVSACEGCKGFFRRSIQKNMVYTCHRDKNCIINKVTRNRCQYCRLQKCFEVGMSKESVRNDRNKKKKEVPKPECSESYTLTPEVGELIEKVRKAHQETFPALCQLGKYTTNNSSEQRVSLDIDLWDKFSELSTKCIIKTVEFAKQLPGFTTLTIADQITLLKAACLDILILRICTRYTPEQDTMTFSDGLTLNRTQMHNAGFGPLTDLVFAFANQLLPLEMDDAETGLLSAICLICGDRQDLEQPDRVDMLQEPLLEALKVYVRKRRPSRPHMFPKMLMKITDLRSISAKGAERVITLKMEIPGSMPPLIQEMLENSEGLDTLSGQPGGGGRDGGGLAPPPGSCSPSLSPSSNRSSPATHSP
T1 sequence (P29590 whole entry, looked up): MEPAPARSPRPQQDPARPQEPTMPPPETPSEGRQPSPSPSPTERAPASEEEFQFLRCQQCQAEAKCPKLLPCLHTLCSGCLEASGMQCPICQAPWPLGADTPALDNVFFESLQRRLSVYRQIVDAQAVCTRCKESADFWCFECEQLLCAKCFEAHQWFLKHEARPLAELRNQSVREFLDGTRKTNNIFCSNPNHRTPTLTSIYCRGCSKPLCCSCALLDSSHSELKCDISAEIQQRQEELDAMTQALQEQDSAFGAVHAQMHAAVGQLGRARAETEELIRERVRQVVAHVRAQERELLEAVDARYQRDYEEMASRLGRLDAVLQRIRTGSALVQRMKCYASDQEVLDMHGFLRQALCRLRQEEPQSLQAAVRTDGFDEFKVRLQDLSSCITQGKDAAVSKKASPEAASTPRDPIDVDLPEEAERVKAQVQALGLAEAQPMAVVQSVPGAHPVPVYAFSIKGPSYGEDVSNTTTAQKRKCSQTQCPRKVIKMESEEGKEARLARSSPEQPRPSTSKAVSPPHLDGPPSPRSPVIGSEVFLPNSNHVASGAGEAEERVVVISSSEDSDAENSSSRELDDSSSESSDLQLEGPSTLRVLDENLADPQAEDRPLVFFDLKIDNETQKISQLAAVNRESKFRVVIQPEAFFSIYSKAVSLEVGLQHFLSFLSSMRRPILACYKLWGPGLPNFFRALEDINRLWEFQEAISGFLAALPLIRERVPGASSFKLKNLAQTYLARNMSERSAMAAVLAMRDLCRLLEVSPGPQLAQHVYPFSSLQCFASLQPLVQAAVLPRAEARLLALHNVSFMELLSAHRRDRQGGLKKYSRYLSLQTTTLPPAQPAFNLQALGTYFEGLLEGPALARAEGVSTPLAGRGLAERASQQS

HL-60 [8] = test: Upregulation of PUMA protein expression in human HL-60 cells overexpressing p53-V272M mutant pretreated for 1 hr followed by culturing in fresh medium for 16 hrs by Western blot analysis; format: functional, cell-based
U-937 [9] = test: Induction of senescence in human U-937 cells overexpressing p53-V272M mutant assessed as upregulation of CDKN1A gene expression by RT-qPCR analysis; format: functional, cell-based
[10] = Drug uptake in human HepG2 cells assessed as arsenic localization in nucleus at 10 uM incubated for 1 hr by ICP-MS analysis; format: ADME, cell-based; details: hepg2, 1 h
U-937 [11] = test: Induction of cell cycle arrest in human U-937 cells overexpressing p53-V272M mutant assessed as upregulation of GADD45A gene expression by RT-qPCR analysis; format: functional, cell-based
U-937 [12] = test: Induction of apoptosis in human U-937 cells harboring p53-V272M mutant assessed as increase in early apoptotic cells at 0.5 to 8 uM pretreated for 1 hr followed by culturing in fresh medium for 24 hrs by Annexin V-FITC/7AAD staining based flow cytometry analysis; format: functional, cell-based; details: dose 0.5-8 µM
U-937 [13] = test: Induction of senescence in human U-937 cells harboring p53-V272M mutant assessed as increase in SA-beta-gal positive cells at 0.5 to 8 uM pretreated for 1 hr followed by culturing in fresh medium for 8 hrs by […] microscopic analysis; format: functional, cell-based; details: dose 0.5-8 µM
[14] = Plasma stability in monkey assessed as half life at […] measured upto 120 mins by LC-MS analysis; format: ADME, cell-free, Macaca mulatta; details: rhesus monkey
NB-4 [15] = test: Inhibition of colony formation in human NB4 cells at 1 to 9 uM pretreated for 1 hr followed by washout and cultured in soft agar containing fresh medium for 18 days by crystal violet staining based assay; format: functional, cell-based; details: dose 1-9 µM
[16] = Drug uptake in human HepG2 cells at 1 to 10 uM incubated for 5 mins at 4 degreeC by ICP-MS analysis; format: ADME, cell-based; details: hepg2, 5 min, dose 1-10 µM
U-937 [17] = test: Upregulation of p21 protein expression in human U-937 cells overexpressing p53-V272M mutant at 0.1 to 0.5 uM pretreated for 1 hr followed by culturing in fresh medium for 16 hrs by Western blot analysis; format: functional, cell-based; details: dose 0.1-0.5 µM
HL-60 [18] = test: Inhibition of colony formation in human HL-60 cells harboring p53-V272M mutant at 0.2 to 3.2 uM pretreated for 1 hr followed by culturing in fresh medium and measured on day 18 by crystal violet staining based assay; format: functional, cell-based; details: dose 0.2-3.2 µM
[19] = tested on: Cellular tumor antigen p53 (Homo sapiens), P04637 [V272M]; test: (§1) Restoration of p53-V272M mutant transcriptional activity on PUMA promoter in human NCI-H1299 cells at 2.5 to 10 uM pretreated with methyl-beta-cyclodextrin for 30 mins followed by compound addition for 10 mins and further incubation in fresh medium for 24 hrs by firefly/renilla based luciferase reporter assay; format: cell-based; details: dose 2.5-10 µM
[20] = target: T1, PML-RARalpha (Homo sapiens); test: Induction of PML/RARalpha degradation in human NB4 cells assessed as residual protein level at 9 uM incubated for 1 hrs followed by replacement with fresh culture medium and measured after 16 hrs by Western blot analysis (reference value: 1); format: cell-based
HL-60 [21] = test: Upregulation of MDM2 mRNA expression in human HL-60 cells overexpressing p53-V272M mutant at 2 uM pretreated for 1 hr followed by culturing in fresh medium for 8 hrs by RT-qPCR analysis; format: functional, cell-based
[22] = target: T1, PML-RARalpha (Homo sapiens); test: Induction of PML/RARalpha degradation in human NB4 cells assessed as residual protein level at 1 uM incubated for 1 hrs followed by replacement with fresh culture medium and measured after 16 hrs by Western blot analysis (reference value: 1); format: cell-based
U-937 [23] = test: Upregulation of PUMA protein expression in human U-937 cells overexpressing p53-V272M mutant at 0.1 to 0.5 uM pretreated for 1 hr followed by culturing in fresh medium for 16 hrs by Western blot analysis; format: functional, cell-based; details: dose 0.1-0.5 µM
HepG2 = test: Impairment of thiol-mediated drug uptake in human HepG2 cells assessed as reduction in arsenic level at 10 uM pretreated with N-ethylmaleimide for 30 mins followed by compound addition and measured after 10 mins by ICP-MS analysis relative to control; format: ADME, cell-based; design: scale not given: the % may be the effect or the level left; details: hepg2, 10 min
[24] = target: T1, PML-RARalpha (Homo sapiens); test: Induction of PML/RARalpha degradation in human NB4 cells assessed as residual protein level at 0.1 uM incubated for 1 hrs followed by replacement with fresh culture medium and measured after 16 hrs by Western blot analysis (reference value: 1); format: cell-based
U-937 [25] = test: Upregulation of MDM2 mRNA expression in human U-937 cells overexpressing p53-V272M mutant pretreated for 1 hr followed by culturing in fresh medium for 4 hrs by RT-qPCR analysis; format: functional, cell-based
[26] = tested on: Cellular tumor antigen p53 (Homo sapiens), P04637 [V272M]; test: as §1, with “at” for “at 2.5 to”, “20 to 40 uM N-ethylmaleimide” for “methyl-beta-cyclodextrin”; format: cell-based
[27] = target: T1, PML-RARalpha (Homo sapiens); test: Induction of PML/RARalpha degradation in human NB4 cells assessed as appearance of large PML speckles characteristic of normal nuclear bodies at 3 uM incubated for 1 hrs followed by replacement with fresh culture medium and measured after 0.5 to 24 hrs by immunofluorescence analysis; format: cell-based
NCI-H1299 [28] = test: Upregulation of MDM2 protein expression in human NCI-H1299 cells overexpressing p53-V272M mutant pretreated for 1 hr followed by culturing in fresh medium for 16 hrs by Western blot analysis; format: functional, cell-based
[29] = Clearance in mouse assessed as hepatic blood flow; format: ADME, tissue-based
[30] = Drug uptake in human U-937 cells assessed as fold increase in arsenic accumulation at 10 uM incubated for 10 mins by ICP-MS analysis; format: ADME, cell-based; details: u-937, 10 min

For CC(=O)OC[C@H]1O[C@@H](S[As]2SCCS2)[C@H](OC(C)=O)[C@@H](OC(C)=O)[C@@H]1OC(C)=O, the CLH [1] was 13.7%, the Activity (U-937 [2]) was “Active” and the Activity (NB-4 [3]) was 19%. The Activity (NB-4 [4]) was 15.6%, the “fold change (FC)” value [5] was 19 and the Activity (NCI-H1299 [6]) was “Active”. For the same compound, the Activity [7] was “Active”, the Activity (HL-60 [8]) was “Active” and the Activity (U-937 [9]) was “Active”. The Drug uptake [10] was “Active”, the Activity (U-937 [11]) was “Active” and the Activity (U-937 [12]) was “Active”. For the same compound, the Activity (U-937 [13]) was “inactive”, the half-life [14] was 11.3 min and the inhibition (NB-4 [15]) was “Active”. The Drug uptake [16] was “Not Active”, the Activity (U-937 [17]) was “Active” and the inhibition (HL-60 [18]) was “Active”. For the same compound, the Activity [19] was “inactive”, the Activity [20] was 0.02 and the Activity (HL-60 [21]) was “Active”. For the same compound, the Activity [22] was 0.26, the Activity (U-937 [23]) was “Active” and the Activity (HepG2) was ~ 90%. For the same compound, the Activity [24] was 0.55, the Activity (U-937 [25]) was “Active” and the Activity [26] was “inactive”. The Activity [27] was “Active”, the Activity (NCI-H1299 [28]) was “Active” and the QH [29] was 90 mL/min/kg. For the same compound, the “fold change (FC)” value [30] was 19.
